Assay results taken from the supplement of paper PMC10307832.

Tests used:
Test in all cases: relative viability (nuclei count vs DMSO), 5 days (fraction); higher = more cells survive
RU-SKI 43 + Olaparib = compound: CC[C@@H](C)CNCC(=O)N1CCC2=C([C@@H]1COC3=CC=CC(=C3)C)C=CS2 [RU-SKI 43] + O=C(c1cc(Cc2n[nH]c(=O)c3ccccc23)ccc1F)N1CCN(C(=O)C2CC2)CC1 [Olaparib] (partner 8 µM)
Outline: (§1)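 A single step with final 0.05% Triton X-100, 1% formaldehyde and 1 ug/ml Hoechst fixed the cells and stained nuclei 5 days after treatment. Lung cancer cell lines in 1536-well plates had been treated by pin tool the day after seeding with one drug alone or a fixed anchor-drug dose plus five library-drug doses (not always all listed) in √10 steps, and nuclei were counted on 4× images. Relative viability is the ratio of nuclei in treated wells to nuclei in vehicle wells, taken as the median of duplicate plates.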

Irinotecan + Vorinostat = compound: CCc1c2c(nc3ccc(OC(=O)N4CCC(N5CCCCC5)CC4)cc13)-c1cc3c(c(=O)n1C2)COC(=O)[C@]3(O)CC [Irinotecan] + O=C(CCCCCCC(=O)Nc1ccccc1)NO [Vorinostat] (partner 1 µM)
Outline: as §1

RU-SKI 43 + Vorinostat = compound: CC[C@@H](C)CNCC(=O)N1CCC2=C([C@@H]1COC3=CC=CC(=C3)C)C=CS2 [RU-SKI 43] + O=C(CCCCCCC(=O)Nc1ccccc1)NO [Vorinostat] (partner 1 µM)
Outline: as §1

RU-SKI 43 + AZD7762 = compound: CC[C@@H](C)CNCC(=O)N1CCC2=C([C@@H]1COC3=CC=CC(=C3)C)C=CS2 [RU-SKI 43] + NC(=O)Nc1cc(-c2cccc(F)c2)sc1C(=O)N[C@H]1CCCNC1 [AZD7762] (partner 0.2 µM)
Outline: as §1

Row | Cell Line | relative viability (RU-SKI 43 + Olaparib; first compound 0.1 µM) | relative viability (RU-SKI 43 + Olaparib; first compound 0.3162 µM) | relative viability (RU-SKI 43 + Olaparib; first compound 1 µM) | relative viability (RU-SKI 43 + Olaparib; first compound 3.162 µM) | relative viability (RU-SKI 43 + Olaparib; first compound 10 µM) | relative viability (Irinotecan + Vorinostat; first compound 2 µM) | relative viability (Irinotecan + Vorinostat; first compound 6.325 µM) | relative viability (Irinotecan + Vorinostat; first compound 20 µM) | relative viability (RU-SKI 43 + Vorinostat; first compound 0.1 µM) | relative viability (RU-SKI 43 + Vorinostat; first compound 0.3162 µM) | relative viability (RU-SKI 43 + Vorinostat; first compound 1 µM) | relative viability (RU-SKI 43 + Vorinostat; first compound 3.162 µM) | relative viability (RU-SKI 43 + Vorinostat; first compound 10 µM) | relative viability (RU-SKI 43 + AZD7762; first compound 0.1 µM) | relative viability (RU-SKI 43 + AZD7762; first compound 0.3162 µM) | relative viability (RU-SKI 43 + AZD7762; first compound 1 µM) | relative viability (RU-SKI 43 + AZD7762; first compound 3.162 µM) | relative viability (RU-SKI 43 + AZD7762; first compound 10 µM) | relative viability (Irinotecan + Vorinostat; first compound 0.6325 µM)
1 | NCI-H1993 | 1.12 | 1.22 | 1.16 | 0.948 | 0.942 | 0.529 | 0.584 | 0.612 | 0.717 | 0.969 | 0.769 | 1.08 | 0.659 | 0.677 | 0.775 | 0.807 | 0.712 | 0.688 | –
2 | NCI-H838 | 0.842 | 0.798 | 0.806 | 0.798 | 0.738 | 0.703 | 0.378 | 0.301 | 0.745 | 0.842 | 0.733 | 0.744 | 0.633 | 0.933 | 1.03 | 1 | 0.987 | 0.876 | 0.776
3 | NCI-H1755 | 0.835 | 0.975 | 0.99 | 0.923 | 0.908 | 0.7 | 0.448 | 0.385 | 0.746 | 0.862 | 0.848 | 0.809 | 0.859 | 0.42 | 0.504 | 0.46 | 0.411 | 0.359 | 0.606
4 | NCI-H1666 | 0.691 | 0.681 | 0.773 | 0.741 | 0.743 | 0.706 | 0.788 | 0.631 | 0.953 | 1.08 | 1.13 | 0.997 | 0.799 | 0.884 | 0.754 | 0.956 | 0.774 | 0.78 | 0.849
